According to US20230312449A1, “CARBOXYLIC ACID COMPOUND, AND PREPARATION METHOD THEREFOR AND APPLICATION THEREOF” (BOTREE CYCLING SCI & TECH CO., LTD., priority 2020, published 2023):
Where “and” joins values, the source holds several entries; their conditions need not be identical. Equal values may be shown once.

Assay: Solubility of extractant in extraction system, oil content by CH2Cl2 extraction and weighing (Ni/Mg chloride system)
Type: physicochemical
Conditions: 0.62 mol/L in Escaid 110; saponification 24%; nickel chloride solution 1.33 g/L Ni, 4 g/L Mg; 30 min; 25° C.
Procedure: Compound BC195 and diluent Escaid 110 were prepared into a 0.62 mol/L solution, and an aqueous phase was a magnesium-enriched nickel chloride solution containing 1.33 g/L Ni and 4 g/L Mg; 100 mL of the organic phase was added in a 250 mL separatory funnel, 10 mol/L sodium hydroxide aqueous solution was added for saponification to a saponification proportion of 24%, and after the saponification, 100 mL of the aqueous phase was added, extraction equilibrium was carried out for 30 min, and the temperature was 25° C.
Oil content test: the aqueous phase was separated out and added with H2SO4, and the [H^+] concentration of the aqueous phase solution was about 1 mol/L. The CH2Cl2 was used for extraction (30 mL×3), and the CH2Cl2 layer was collected, dried with 1 g anhydrous Na2SO4 to remove the water in CH2Cl2, and filtered; the filtrate was subjected to rotary evaporation, and then the residue was dried with an oil pump for 30 min. The oil content which CH2Cl2 extracted out in the system was obtained by weighing the flask before and after the rotary evaporation.
This comparative example differs from Performance Example 6 in that Compound BC195 was replaced by Extractant CA12 (commercially available, with an acid content of 98%).

Equilibrium pH: 7.2 and 7.23
SMILES: CCCCCCC(OCC(CC)CCCC)C(=O)O (stereo not shown) [Compound BC195]
